In PubChem BioAssay (NCI):
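GI50 = concentration required for 50% inhibition of growth. TGI: total growth inhibition.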

Experiments:
Assay in all cases: growth of human tumour cells (NCI), 384-well format
UACC-257 melanoma = system: UACC-257 melanoma
SK-MEL-5 melanoma = system: SK-MEL-5 melanoma
SF-539 CNS = system: SF-539 CNS
SK-MEL-28 melanoma = system: SK-MEL-28 melanoma
T-47D breast = system: T-47D breast
RXF 393 renal = system: RXF 393 renal
MALME-3M melanoma = system: MALME-3M melanoma
NCI-H460 NSCLC = system: NCI-H460 NSCLC
HS 578T breast = system: HS 578T breast
EKVX NSCLC = system: EKVX NSCLC
MDA-MB-468 breast = system: MDA-MB-468 breast
SK-OV-3 ovarian = system: SK-OV-3 ovarian
SF-295 CNS = system: SF-295 CNS
HT29 colon = system: HT29 colon
SW-620 colon = system: SW-620 colon
LOX IMVI melanoma = system: LOX IMVI melanoma
U251 glioblastoma = system: U251 glioblastoma
HCC-2998 colon = system: HCC-2998 colon
SNB-75 CNS = system: SNB-75 CNS
SR leukemia = system: SR leukemia
PC-3 prostate = system: PC-3 prostate
RPMI-8226 leukemia = system: RPMI-8226 leukemia
NCI-H23 lung = system: NCI-H23 lung
OVCAR-8 ovarian = system: OVCAR-8 ovarian
SN12C renal = system: SN12C renal
KM12 colon = system: KM12 colon
M14 melanoma = system: M14 melanoma
NCI-H522 lung = system: NCI-H522 lung
OVCAR-4 ovarian = system: OVCAR-4 ovarian
OVCAR-3 ovarian = system: OVCAR-3 ovarian

CC1(C)CC[C@H](Nc2ncc(C(F)(F)F)c(-c3c[nH]c4c(P(C)(C)=O)c(C#N)ccc34)n2)CN1
TGI (UACC-257 melanoma): 3450 nM
GI50 (SK-MEL-5 melanoma): 43.8 nM
TGI (SK-MEL-5 melanoma): 1420 nM
GI50 (SF-539 CNS): < 10 nM
TGI (SF-539 CNS): 1300 nM
GI50 (SK-MEL-28 melanoma): < 10 nM
TGI (SK-MEL-28 melanoma): 1520 nM
GI50 (T-47D breast): 994 nM
TGI (T-47D breast): 10200 nM
GI50 (RXF 393 renal): 1510 nM
TGI (RXF 393 renal): 2990 nM
GI50 (MALME-3M melanoma): 27.6 nM
TGI (MALME-3M melanoma): 2420 nM
GI50 (NCI-H460 NSCLC): < 10 nM
TGI (NCI-H460 NSCLC): < 10 nM
GI50 (HS 578T breast): 301 nM
TGI (HS 578T breast): 1620 nM
GI50 (EKVX NSCLC): 361 nM
TGI (EKVX NSCLC): 3640 nM
GI50 (MDA-MB-468 breast): 1360 nM
TGI (MDA-MB-468 breast): 3010 nM
GI50 (SK-OV-3 ovarian): 1130 nM
TGI (SK-OV-3 ovarian): 6250 nM
GI50 (SF-295 CNS): 67.5 nM
TGI (SF-295 CNS): 4570 nM
GI50 (HT29 colon): 2060 nM
TGI (HT29 colon): 28300 nM
GI50 (SW-620 colon): < 10 nM
TGI (SW-620 colon): 10200 nM
GI50 (LOX IMVI melanoma): < 10 nM
TGI (LOX IMVI melanoma): 213 nM
GI50 (U251 glioblastoma): 13.3 nM
TGI (U251 glioblastoma): 10400 nM
GI50 (HCC-2998 colon): < 10 nM
TGI (HCC-2998 colon): 4210 nM
GI50 (SNB-75 CNS): 1570 nM
TGI (SNB-75 CNS): 3200 nM
GI50 (SR leukemia): < 10 nM
TGI (SR leukemia): < 10 nM
GI50 (PC-3 prostate): < 10 nM
TGI (PC-3 prostate): 10800 nM
GI50 (RPMI-8226 leukemia): < 10 nM
TGI (RPMI-8226 leukemia): < 10 nM
GI50 (NCI-H23 lung): < 10 nM
TGI (NCI-H23 lung): 1470 nM
GI50 (OVCAR-8 ovarian): 74.3 nM
TGI (OVCAR-8 ovarian): 6280 nM
GI50 (SN12C renal): < 10 nM
TGI (SN12C renal): 2870 nM
GI50 (KM12 colon): < 10 nM
TGI (KM12 colon): 1680 nM
GI50 (M14 melanoma): 16.8 nM
TGI (M14 melanoma): 2210 nM
GI50 (NCI-H522 lung): < 10 nM
TGI (NCI-H522 lung): 2420 nM
GI50 (OVCAR-4 ovarian): 21.3 nM
TGI (OVCAR-4 ovarian): 1420 nM
GI50 (OVCAR-3 ovarian): < 10 nM
TGI (OVCAR-3 ovarian): < 10 nM
